As usually defined, the IC50 is the concentration needed to halve the response being measured.

Experimental findings from patent US20140011799A1 (Bristol-Myers Squibb Company, priority 2012, published 2014) are described below.

One test concerns the target T1, Endothelial lipase (EL) (Homo sapiens, UniProt Q9Y5X9).
T1 construct: HT-1080 cells that were transformed using RAGE technology (Athersys) to overexpress endogenous EL; endogenous in cells; conditioned medium used
T1 sequence (Q9Y5X9 21-500): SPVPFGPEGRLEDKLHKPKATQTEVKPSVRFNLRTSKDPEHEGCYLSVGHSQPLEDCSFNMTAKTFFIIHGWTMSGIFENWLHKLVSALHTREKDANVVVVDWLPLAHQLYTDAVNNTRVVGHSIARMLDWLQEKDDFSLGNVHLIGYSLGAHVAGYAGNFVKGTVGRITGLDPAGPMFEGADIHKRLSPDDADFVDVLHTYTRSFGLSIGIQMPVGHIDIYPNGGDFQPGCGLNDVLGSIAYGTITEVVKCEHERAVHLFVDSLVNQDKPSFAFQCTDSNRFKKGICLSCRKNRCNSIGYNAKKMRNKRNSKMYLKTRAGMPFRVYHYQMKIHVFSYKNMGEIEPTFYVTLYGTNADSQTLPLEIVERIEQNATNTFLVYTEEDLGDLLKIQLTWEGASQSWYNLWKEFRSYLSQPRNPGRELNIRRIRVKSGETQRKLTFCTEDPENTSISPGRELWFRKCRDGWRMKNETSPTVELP
Description: Endothelial lipase (EL) enzymatic assay, fluorescent substrate A10070 in DMPG vesicles. Format: biochemical. To be noted: EL from conditioned media of HT-1080 cells; compound preincubated 30 min at 37° C; read-out: EL IC50. In outline: (§1)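 EL from conditioned medium of HT-1080 cells engineered to overexpress endogenous EL; HL partially purified from conditioned medium of HL-overexpressing COS cells. Enzyme preincubated with compound 30 min at 37° C in 50 mM HEPES pH 8.0, 50 mM NaCl, 1 mM CaCl2; DMPG vesicles carrying FRET substrate (0.11 mole fraction) then added.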

Another test addresses T2, hepatic lipase (HL) (Homo sapiens, UniProt P11150).
T2 construct: made in house; host or cells: COS cells (conditioned medium, partially purified)
T2 sequence (P11150 23-499): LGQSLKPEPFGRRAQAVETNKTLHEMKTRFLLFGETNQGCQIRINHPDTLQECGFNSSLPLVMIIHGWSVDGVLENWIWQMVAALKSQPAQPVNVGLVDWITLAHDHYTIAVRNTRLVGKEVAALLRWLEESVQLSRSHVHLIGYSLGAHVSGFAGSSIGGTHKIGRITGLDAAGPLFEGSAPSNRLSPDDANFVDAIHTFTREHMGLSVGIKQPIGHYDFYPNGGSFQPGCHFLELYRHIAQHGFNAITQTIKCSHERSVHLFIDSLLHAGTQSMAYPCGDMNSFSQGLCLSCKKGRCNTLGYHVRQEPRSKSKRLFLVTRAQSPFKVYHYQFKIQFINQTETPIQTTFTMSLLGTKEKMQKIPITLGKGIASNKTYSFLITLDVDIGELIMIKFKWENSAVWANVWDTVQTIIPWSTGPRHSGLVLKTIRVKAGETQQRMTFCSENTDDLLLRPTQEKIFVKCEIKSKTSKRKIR
The test can be described thus: Hepatic lipase (HL) enzymatic assay, fluorescent substrate A10070 in DMPG vesicles. To be noted: HL partially purified from conditioned media of COS cells; compound preincubated 30 min at 37° C; read-out: HL IC50. Format: biochemical. In outline:
as §1

“And” between values parts separate entries of the source, which are not always exact repeats. Equal values may be shown once. Some results are limits rather than exact numbers.

For `CC1(Cc2nnc(C(c3nc4ccc(-c5cccc(C(=O)NC6CC(F)(F)C6)c5)cc4s3)S(C)(=O)=O)o2)NC(=O)NC1=O` (centres unmarked) [Example 223, N-(3,3-difluorocyclobutyl)-3-{2-[methanesulfonyl({5-[(4-methyl-2,5-dioxo-imidazolidin-4-yl)methyl]-1,3,4-oxadiazol-2-yl})methyl]-1,3-benzothiazol-6-yl} benzamide], the IC50 on Endothelial lipase (EL) worked out at 32 nM; at hepatic lipase (HL) it was 55 nM.
In the same order, the values of `NCCS(=O)(=O)C(c1nnc(CC2SC(=O)NC2=O)o1)c1nc2ccc(-c3ccc(C(=O)N4CCOCC4)cc3)cc2s1` (centres unmarked) [Example 185, 5-{[5-([(2-aminoethyl)sulfonyl]{6-[4-(4-morpholinylcarbonyl)phenyl]-1,3-benzothiazol-2-yl}methyl)-1,3,4-oxadiazol-2-yl]methyl}-1,3-thiazolidine-2,4-dione] are under 10 nM and 70 nM.
As to `CS(=O)(=O)C(c1nnc(CC2SC(=O)NC2=O)o1)c1nc2ccc(-c3ccc(C(=O)OCc4ccccc4)cc3)cc2s1` (centres unmarked) [Example 105, benzyl 4-(2-((5-((2,4-dioxo-1,3-thiazolidin-5-yl)methyl)-1,3,4-oxadiazol-2-yl)(methylsulfonyl)methyl)-1,3-benzothiazol-6-yl)benzoate], the IC50 at Endothelial lipase (EL) and on hepatic lipase (HL) was under 10 nM each time.
Consider `NS(=O)(=O)NCc1nnc(C(c2nc3ccc(-c4cc(Cl)cc(Cl)c4)cc3s2)S(=O)(=O)Cc2ccccc2)o1` (centres unmarked) [Example 143, N-((5-((benzylsulfonyl)(6-(3,5-dichlorophenyl)-1,3-benzothiazol-2-yl)methyl)-1,3,4-oxadiazol-2-yl)methyl) sulfamide], for which the half-inhibitory concentration (IC50) on Endothelial lipase (EL) and at hepatic lipase (HL) was under 10 nM each time.
Turning to `CS(=O)(=O)C(c1nnc(CC2SC(=O)NC2=O)o1)c1nc2ccc(C3=CCOCC3)cc2s1` (centres unmarked) [Example 99, 5-((5-((6-(3,6-dihydro-2H-pyran-4-yl)-1,3-benzothiazol-2-yl)(methylsulfonyl)methyl)-1,3,4-oxadiazol-2-yl)methyl)-1,3-thiazolidine-2,4-dione], the IC50 is under 10 nM on Endothelial lipase (EL) and 142 nM at hepatic lipase (HL).
Consider `CS(=O)(=O)C(c1nnc(CNS(N)(=O)=O)o1)c1nc2ccc(-c3cccc(C(=O)NC4CCC4)c3)cc2s1` (centres unmarked) [Example 261, N-cyclobutyl-3-{2-[methanesulfonyl({5-[(sulfamoylamino)methyl]-1,3,4-oxadiazol-2-yl})methyl]-1,3-benzothiazol-6-yl}benzamide], for which the IC50 was 3 nM on Endothelial lipase (EL) and 5 nM on hepatic lipase (HL).
The corresponding values for `COC(=O)NCCS(=O)(=O)C(c1nnc(CNS(N)(=O)=O)o1)c1nc2ccc(-c3ccccc3)cc2s1` (centres unmarked) [Example 122, methyl (2-(((6-phenyl-1,3-benzothiazol-2-yl)(5-((sulfamoylamino)methyl)-1,3,4-oxadiazol-2-yl)methyl)sulfonyl)ethyl)carbamate] are under 10 nM and under 10 nM.
The corresponding values for `CN(C)C(=O)O[C@H](C(=O)NCc1nnc(C(c2nc3ccc(-c4ccccc4)cc3s2)S(C)(=O)=O)o1)C(C)(C)C` (stereo partly drawn) [Example 156, (1S)-2,2-dimethyl-1-(((5-((methylsulfonyl)(6-phenyl-1,3-benzothiazol-2-yl)methyl)-1,3,4-oxadiazol-2-yl)methyl)carbamoyl) propyl dimethylcarbamate] are 57 nM and 71 nM.
As to `CS(=O)(=O)C(c1nnc(CNS(N)(=O)=O)o1)c1nc2ccc(-c3cccc(C(=O)N4CC(O)C4)c3)cc2s1` (centres unmarked) [Example 252, N-{[5-({6-[3-(3-hydroxyazetidine-1-carbonyl)phenyl]-1,3-benzothiazol-2-yl} (methanesulfonyl)methyl)-1,3,4-oxadiazol-2-yl]methyl}aminosulfonamide], the results for the 50% inhibitory concentration (IC50) at Endothelial lipase (EL) and at hepatic lipase (HL) were 10 nM and 22 nM, respectively.
`CC(C)(C)OC(=O)NS(=O)(=O)NCc1nnc(C(c2nc3ccc(-c4cc(F)cc(Cl)c4)cc3s2)S(=O)(=O)Cc2ccccc2)o1` (centres unmarked) [Example 142, tert-butyl (((5-((benzylsulfonyl)(6-(3-chloro-5-fluorophenyl)-1,3-benzothiazol-2-yl)methyl)-1,3,4-oxadiazol-2-yl)methyl)sulfamoyl)carbamate]: the half-inhibitory concentration (IC50) on Endothelial lipase (EL) and on hepatic lipase (HL) was under 10 nM each time.
Consider `CS(=O)(=O)C(c1nnc(CC2SC(=O)NC2=O)o1)c1nc2ccc(-c3cnc(OCc4ccccc4)nc3)cc2s1` (centres unmarked) [Example 104, 5-((5-((6-(2-(benzyloxy)-5-pyrimidinyl)-1,3-benzothiazol-2-yl)(methylsulfonyl)methyl)-1,3,4-oxadiazol-2-yl)methyl)-1,3-thiazolidine-2,4-dione], for which the IC50 at Endothelial lipase (EL) was under 10 nM; on hepatic lipase (HL), < 10 nM and 11 nM.
For the molecule `CS(=O)(=O)C(c1nnc(CNS(N)(=O)=O)o1)c1nc2ccc(-c3cccc(C(=O)N4CCC(O)CC4)c3)cc2s1` (centres unmarked) [Example 255, N-{[5-({6-[3-(4-hydroxypiperidine-1-carbonyl)phenyl]-1,3-benzothiazol-2-yl} (methanesulfonyl)methyl)-1,3,4-oxadiazol-2-yl]methyl} aminosulfonamide], the half-maximal inhibitory concentration (IC50) turned out to be 2 nM at Endothelial lipase (EL) and 46 nM at hepatic lipase (HL).
Turning to `NS(=O)(=O)NCc1nnc(C(c2nc3ccc(-c4ccc(F)c(Cl)c4)cc3s2)S(=O)(=O)Cc2ccccc2)o1` (centres unmarked) [Example 139, N-((5-((benzylsulfonyl)(6-(3-chloro-4-fluorophenyl)-1,3-benzothiazol-2-yl)methyl)-1,3,4-oxadiazol-2-yl)methyl) sulfamide], the IC50 at Endothelial lipase (EL) and on hepatic lipase (HL) was under 10 nM each time.
As for `CC(=O)NS(=O)(=O)Cc1nnc(C(c2nc3ccc(-c4ccccc4)cc3s2)S(C)(=O)=O)o1` (centres unmarked) [Example 169, N-(((5-((Methylsulfonyl)(6-phenyl-1,3-benzothiazol-2-yl)methyl)-1,3,4-oxadiazol-2-yl)methyl)sulfonyl)acetamide], the IC50 on Endothelial lipase (EL) was under 10 nM; at hepatic lipase (HL) it was 160 nM.
In the same order, the values of `CC(C)(C)CNC(=O)c1cccc(-c2ccc3nc(C(c4nnc(CNS(N)(=O)=O)o4)S(C)(=O)=O)sc3c2)c1` (centres unmarked) [Example 260, N-(2,2-dimethylpropyl)-3-{2-[methanesulfonyl({5-[(sulfamoylamino)methyl]-1,3,4-oxadiazol-2-yl})methyl]-1,3-benzothiazol-6-yl}benzamide] are 3 nM and 7 nM.
The corresponding values for `Cn1ccc(-c2ccc3sc(C(c4nnc(CNS(N)(=O)=O)o4)S(C)(=O)=O)nc3c2)cc1=O` (centres unmarked) [Example 245, N-[(5-{methanesulfonyl[5-(1-methyl-2-oxo-1,2-dihydropyridin-4-yl)-1,3-benzothiazol-2-yl]methyl}-1,3,4-oxadiazol-2-yl)methyl]aminosulfonamide] are 8 nM and 72 nM.
With `Cn1cc(-c2cc3sc(C(c4nnc(CNS(N)(=O)=O)o4)S(=O)(=O)Cc4ccccc4)nc3cc2F)cn1` (centres unmarked) [Example 158, N-((5-((benzylsulfonyl)(5-fluoro-6-(1-methyl-1H-pyrazol-4-yl)-1,3-benzothiazol-2-yl)methyl)-1,3,4-oxadiazol-2-yl)methyl) sulfamide], the IC50 at Endothelial lipase (EL) is under 10 nM; at hepatic lipase (HL), 21 nM.
With `CS(=O)(=O)C(c1nnc(CC2SC(=O)NC2=O)o1)c1nc2ccc(-c3ccc(=O)n(Cc4ccccc4)c3)cc2s1` (centres unmarked) [Example 101, 5-((5-((6-(1-benzyl-6-oxo-1,6-dihydro-3-pyridinyl)-1,3-benzothiazol-2-yl)(methylsulfonyl)methyl)-1,3,4-oxadiazol-2-yl)methyl)-1,3-thiazolidine-2,4-dione], the half-inhibitory concentration (IC50) on Endothelial lipase (EL) was under 10 nM; on hepatic lipase (HL), 160 nM.
For the molecule `CS(=O)(=O)C(c1nnc(CNS(N)(=O)=O)o1)c1nc2cc(-c3ccc(C(=O)N4CCOCC4)cc3)ccc2s1` (centres unmarked) [Example 243, N-({5-[methanesulfonyl({5-[4-(morpholine-4-carbonyl)phenyl]-1,3-benzothiazol-2-yl})methyl]-1,3,4-oxadiazol-2-yl}methyl)aminosulfonamide], the values for the IC50 at Endothelial lipase (EL) and on hepatic lipase (HL) were 5 nM and 119 nM, respectively.
